Literature values as cited in patent US9040083B2, “Orally effective methylphenidate extended release powder and aqueous suspension product” (Tris Pharma, Inc., priority 2011, dated 2015).

Settings: oral dosing of radiolabeled methylphenidate in humans

COC(=O)C(c1ccccc1)C1CCCCN1 (stereo not shown) [methylphenidate]
radioactivity recovered in urine: about 90%
